Measurements taken from article PMC9864769, “Identification of Lignan Compounds as New 6-Phosphogluconate Dehydrogenase Inhibitors for Lung Cancer” (Metabolites, 2022).

Target: T1, 6-phosphogluconate dehydrogenase (6-PGD) (Homo sapiens, UniProt P52209)
T1 construct: native enzyme purified from human erythrocytes
T1 sequence (P52209 1-483): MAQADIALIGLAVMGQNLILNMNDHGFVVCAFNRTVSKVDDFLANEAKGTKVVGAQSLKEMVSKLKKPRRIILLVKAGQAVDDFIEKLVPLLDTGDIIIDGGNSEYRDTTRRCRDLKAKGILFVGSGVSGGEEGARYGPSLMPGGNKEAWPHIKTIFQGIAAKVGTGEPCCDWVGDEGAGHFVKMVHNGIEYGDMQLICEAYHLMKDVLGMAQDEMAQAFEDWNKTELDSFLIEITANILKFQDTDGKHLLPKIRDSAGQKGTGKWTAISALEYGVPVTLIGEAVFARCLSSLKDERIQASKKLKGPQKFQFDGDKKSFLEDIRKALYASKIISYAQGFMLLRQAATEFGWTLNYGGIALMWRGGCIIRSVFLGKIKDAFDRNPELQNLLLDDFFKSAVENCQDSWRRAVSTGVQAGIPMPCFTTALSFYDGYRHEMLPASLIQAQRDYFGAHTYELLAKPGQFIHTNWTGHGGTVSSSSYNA
Assay: enzyme activity assay (NADPH absorbance at […] nm) on 6-PGD purified from human erythrocytes; also A549 lysate assay
Format: biochemical
Settings: read-out: % reduction of activity at 200 μg/mL

| inhibition at 200 µg/mL [%] | Structure (SMILES) |
| --- | --- |
| 70 | COc1cc([C@H]2Oc3c(OC)cc4ccc(=O)oc4c3O[C@@H]2CO)ccc1O [cleomiscosin A] |
| 76.3 | COc1cc([C@H]2OC[C@H]3[C@@H]2CO[C@@H]3c2cc(OC)c(O)c(OC)c2)cc(OC)c1O [syringaresinol] |
